Reference: US20240425475A1, “COMPOUND BASED ON QUINAZOLINE-SUBSTITUTED GLUTARIMIDE SKELETON AND USE THEREOF” (GLUETACS THERAPEUTICS (SHANGHAI) CO., LTD., priority 2022, published 2024)
pIC50: −log10 of the molar value.

Experiments:
[1] = system: Human diffuse large B-cell lymphoma cell line: TMD8; test: Half inhibitory concentration (IC50) against tumor cells, CCK-8 cell viability; assay type: cell-based; details: 96 h treatment
Protocol: (§1) The tumor cells used herein were cultured in a cell culture medium listed in table 2 at 37° C. in an incubator with 5% CO2. Prior to experimentation, all cells used were correctly identified by STR profiling, and tested negative for mycoplasma through routine screenings. [table] Determination of Half Inhibitory Concentration (IC50) of the Compounds Against Tumor Cells: IC50 values of the compounds of the present disclosure (including the compounds in Table 1, and compounds of examples 1-104) were measured using the Meilun Cell Counting Kit-8 kit from Dalian Meilun Biotech Co., Ltd. Assay details are as follows: tumor cells were seeded in a 96-well plate at a density listed in Table 3. After 24 h, 100 μL of the inoculated cells were treated with 0.5 μl of the compounds of the present disclosure (including the compounds in Table 1, and compounds of examples 1-104) at 10 different successively decreasing concentrations (starting at the highest concentration of […]; 5-fold serial dilutions). After the cells were treated with the compounds of the present disclosure for a period of time, cell viability was measured according to the instructions provided with the CCK-8 kit. DMSO served as the negative control, and corresponding commercial immunomodulatory drug Avadomide (CC-122) was used as the positive control, both of which treated the cells using the same protocol as that of the compounds of the present disclosure. The growth inhibition of the compounds of the present disclosure on cells was plotted by Prism Graphpad software, and the IC50 values of the compounds of the present disclosure were calculated therefrom. [table] We tested the activities of the compounds of the present invention (including the compounds in Table 1 and Examples 1-104 compounds) in tumor cells through a dose-dependent manner. The cells were treated with the compounds of the present invention at 10 different successively decreasing concentrations (starting at the highest concentration of 10 μM; 5-fold serial dilutions) for 72 h or 96 h, and then the cell viability determination was performed in accordance with CCK-8 reagent operating instructions.

[2] = target: human Cereblon WT GST-tagged protein (Homo sapiens (Human), UniProt Q96SW2); test: CRBN-binding affinity, CEREBLON BINDING kit (HTRF); details: HTRF inhibitory activity, binding to CRBN
Sequence of human Cereblon WT GST-tagged protein (Q96SW2 whole entry): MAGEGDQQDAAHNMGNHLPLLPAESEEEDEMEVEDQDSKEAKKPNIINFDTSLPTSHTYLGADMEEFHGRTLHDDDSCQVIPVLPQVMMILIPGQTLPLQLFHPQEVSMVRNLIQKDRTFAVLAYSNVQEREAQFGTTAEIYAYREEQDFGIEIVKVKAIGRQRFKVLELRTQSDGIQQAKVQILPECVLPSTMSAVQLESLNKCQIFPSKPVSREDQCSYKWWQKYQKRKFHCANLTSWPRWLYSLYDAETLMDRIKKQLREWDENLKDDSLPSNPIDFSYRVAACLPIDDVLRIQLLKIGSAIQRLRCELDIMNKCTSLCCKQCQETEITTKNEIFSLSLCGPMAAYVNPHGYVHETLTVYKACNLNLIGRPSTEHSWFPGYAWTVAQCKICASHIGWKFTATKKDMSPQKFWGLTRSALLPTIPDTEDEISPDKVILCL
Text: Determination of CRBN-Binding Affinity of Compounds
The CEREBLON BINDING kits (specification: 10,000 tests; product number: Catalog #64BDCRBNPEH; CISBIO company) was used to determine the CRBN binding ability of the compounds to be tested through a HTRF method (homogeneous time-resolved fluorescence). The specific methods are as follows: • 1. According to the instructions of the CEREBLON BINDING kits, the compounds to be tested of the present invention and lenalidomide were serially diluted using diluent #9 (1×) solution to obtain a final concentration of 2 μM for both the tested compounds and lenalidomide solution. • 2.2.5 μL of the above 2 μM of the tested compounds and lenalidomide solution, as well as the same volume of diluent #9 (1×) solution (solvent control group, Std0) were taken and added to each well of a 96-well plate, respectively. Then, 2.5 μL of (human Cereblon WT GST-tagged protein) solution was added to each well. Finally, 5 μL of the uniformly mixed thalidomide-Red reagent and GST Eu antibody working solution were added to each of the above wells. The final concentration of the tested compounds and lenalidomide in each well is 0.5 μM. • 3. The blank control wells were sequentially added with 2.5 μL of diluent #9 (1×) solution, 2.5 μL of PROTAC binding buffer, and 5 μL of uniformly mixed thalidomide-Red reagent and GST Eu antibody working solution. • 4. After sealing and incubating the solutions in the above wells at room temperature for 3 hours, the absorbance values at emission wavelengths of 620 nm and 665 nm were detected by the HTRF method using a Spark microplate reader (V3.1 SP1).
The corresponding CRBN binding inhibition rate was calculated using the following method: […]
Note: OD 665 nmcompound is the absorbance value of each well of the compounds to be tested of the present disclosure at an emission wavelength of 665 nm.
OD 620 nmcompound is the absorbance value of each well of the compounds to be tested of the present disclosure at an emission wavelength of 620 nm.
OD 665 nmcontrol is the absorbance value of the blank control well at an emission wavelength of 665 nm.
OD 620 nmcontrol is the absorbance value of the blank control well at an emission wavelength of 620 nm.
OD 665 nmstd0 is the absorbance value of the solvent control well at an emission wavelength of 665 nm.
OD 620 nmstd0 is the absorbance value of the solvent control well at an emission wavelength of 620 nm.

[3] = system: Human multiple myeloma cells: MM.1S; test: Half inhibitory concentration (IC50) against tumor cells, CCK-8 cell viability; assay type: cell-based; details: MM1.S, MM.1S cells, 72 h treatment
Protocol: as §1

[4] = system: Human dexamethasone-resistant multiple myeloma cell line: MM.1R; test: as above; assay type: cell-based; details: MM.1R cells, 72 h treatment
Protocol: as §1

[5] = system: Human colon cancer cell: SW620; test: as above; assay type: cell-based; details: SW-620, 96 h treatment
Protocol: as §1

pIC50 [1]	pIC50 [2]	pIC50 [3]	pIC50 [4]	pIC50 [5]	SMILES
6.99	5.58				Cc1nc2cccc(NCCCCCCCNC34CCC(F)(CC3)CC4)c2c(=O)n1C1CCC(=O)NC1=O (stereo not shown) [GT-02774, 3-(5-((7-((4-fluorobicyclo[2.2.2]octan-1-yl)amino)heptyl)amino)-2-methyl-4-oxoquinazolin-3(4H)-yl)piperidine-2,6-dione]
6.84		7.40			Cc1nc2cccc(NCCCCCCNC34CC5CC(CC(C5)C3)C4)c2c(=O)n1C1CCC(=O)NC1=O (stereo not shown) [GT-02235, 3-(5-((6-(((3s,5s,7s)-adamantan-1-yl)amino)hexyl)amino)-2-methyl-4-oxoquinazolin-3(4H)-yl)piperidine-2,6-dione]
6.35					Cc1nc2cccc(NCCCCCCCN3CC4CC4C3)c2c(=O)n1C1CCC(=O)NC1=O (stereo not shown) [GT-02772, 3-(5-((7-(3-azabicyclo[3.1.0]hexan-3-yl)heptyl)amino)-2-methyl-4-oxoquinazolin-3(4H)-yl)piperidine-2,6-dione]
7.67	6.49		8.01		Cc1nc2cccc(NCCCCCCCNC34CC5CC(CC3C5)C4)c2c(=O)n1C1CCC(=O)NC1=O (stereo not shown) [GT-02495, 3-(5-((7-(((3as,6as)-hexahydro-2,5-methanopentalen-3a(1H)-yl)amino)heptyl)amino)-2-methyl-4-oxoquinazolin-3(4H)-yl)piperidine-2,6-dione]
6.32	6.38				Cc1nc2cccc(NCCCCCNC34CC5CC(CC3C5)C4)c2c(=O)n1C1CCC(=O)NC1=O [GT-02496, 3-(5-((5-(((2R,3as,5S,6as)-hexahydro-2,5-methanopentalen-3a(1H)-yl)amino)pentyl)amino)-2-methyl-4-oxoquinazolin-3(4H)-yl)piperidine-2,6-dione]
6.51	6.74				Cc1nc2cccc(CCCCCCCCNC34CC5CC(CC(C5)C3)C4)c2c(=O)n1C1CCC(=O)NC1=O (stereo not shown) [GT-02797, 3-(5-(8-(((1s,3s)-adamantan-1-yl)amino)octyl)-2-methyl-4-oxoquinazolin-3(4H)-yl)piperidine-2,6-dione]
6.53	6.17	7.01			Cc1nc2cccc(NCCCCCCCNC(C)C34CC5CC(CC(C5)C3)C4)c2c(=O)n1C1CCC(=O)NC1=O (stereo not shown) [GT-02768, 3-(5-((7-((1-((3r,5r,7r)-adamantan-1-yl)ethyl)amino)heptyl)amino)-2-methyl-4-oxoquinazolin-3(4H)-yl)piperidine-2,6-dione]
6.36					Cc1nc2cccc(NCCOCCOCCNC34CC5CC(CC(C5)C3)C4)c2c(=O)n1C1CCC(=O)NC1=O (stereo not shown) [GT-02279, 3-(5-((2-(2-(2-(((1s,3s)-adamantan-1-yl)amino)ethoxy)ethoxy)ethyl)amino)-2-methyl-4-oxoquinazolin-3(4H)-yl)piperidine-2,6-dione]
	5.44	7.76			Cc1nc2cccc(NCCCCCCCO)c2c(=O)n1C1CCC(=O)NC1=O (stereo not shown) [GT-02598, 3-(5-((7-hydroxyheptyl)amino)-2-methyl-4-oxoquinazolin-3(4H)-yl)piperidine-2,6-dione]
6.51	5.98	7.16			Cc1nc2cccc(NCCCCCCCN[C@@]34CC5CC(C)(C[C@@](C)(C5)C3)C4)c2c(=O)n1C1CCC(=O)NC1=O (stereo partly drawn) [GT-02767, 3-(5-((7-(((1SR,3RS,5SR,7r)-3,5-dimethyladamantan-1-yl)amino)heptyl)amino)-2-methyl-4-oxoquinazolin-3(4H)-yl)piperidine-2,6-dione]
8.09	6.02	8.48			Cc1nc2cccc(NCCCCCCCNC34CC5CC(CC(C5)C3)C4)c2c(=O)n1C1CCC(=O)NC1=O (stereo not shown) [GT-02237, 3-(5-((7-(((1s,3s)-adamantan-1-yl)amino)heptyl)amino)-2-methyl-4-oxoquinazolin-3(4H)-yl)piperidine-2,6-dione]
6.73	6.34				Cc1nc2cccc(NCCCCCCNC34CC5CC(CC3C5)C4)c2c(=O)n1C1CCC(=O)NC1=O [GT-02494, 3-(5-((6-(((2R,3as,5S,6as)-hexahydro-2,5-methanopentalen-3a(1H)-yl)amino)hexyl)amino)-2-methyl-4-oxoquinazolin-3(4H)-yl)piperidine-2,6-dione]
			6.45		Cc1cc2cccc(NCCN3CCN(C(c4ccc(F)cc4)c4ccc(F)cc4)CC3)c2c(=O)n1C1CCC(=O)NC1=O (stereo not shown) [GT-03388, 3-(8-((2-(4-(bis(4-fluorophenyl)methyl)piperazin-1-yl)ethyl)amino)-3-methyl-1-oxoisoquinolin-2(1H)-yl)piperidine-2,6-dione]
6.34	6.38				Cc1nc2cccc(NCCCCCNC3C4CC5CC(C4)CC3C5)c2c(=O)n1C1CCC(=O)NC1=O (stereo not shown) [GT-02393, 3-(5-((5-(((1r,3r,5r,7r)-adamantan-2-yl)amino)pentyl)amino)-2-methyl-4-oxoquinazolin-3(4H)-yl)piperidine-2,6-dione]
6.19					Cc1nc2cccc(NCCCCCNC(=O)C34CC5CC(CC(C5)C3)C4)c2c(=O)n1C1CCC(=O)NC1=O (stereo not shown) [GT-02323, (3r,5r,7r)-N-(5-((3-(2,6-dioxopiperidin-3-yl)-2-methyl-4-oxo-3,4-dihydroquinazolin-5-yl)amino)pentyl)adamantane-1-carboxamide]
6.36	5.55				Cc1nc2cccc(NCCCCCCCN3CCC4(CC3)CC(F)(F)C4)c2c(=O)n1C1CCC(=O)NC1=O (stereo not shown) [GT-02773, 3-(5-((7-(2,2-difluoro-7-azaspiro[3.5]nonan-7-yl)heptyl)amino)-2-methyl-4-oxoquinazolin-3(4H)-yl)piperidine-2,6-dione]
				6.15	Cc1nc2cccc(SCCN3CCN(c4ccc(C#N)cc4F)CC3)c2c(=O)n1C1CCC(=O)NC1=O (stereo not shown) [GT-03314, 4-(4-(2-((3-(2,6-dioxopiperidin-3-yl)-2-methyl-4-oxo-3,4-dihydroquinazolin-5-yl)thio)ethyl)piperazin-1-yl)-3-fluorobenzonitrile]
6.39					Cc1nc2cccc(NCCCCCNC34CC5CC(CC(C5)C3)C4)c2c(=O)n1C1CCC(=O)NC1=O (stereo not shown) [GT-02280, 3-(5-((5-(((3s,5s,7s)-adamantan-1-yl)amino)pentyl)amino)-2-methyl-4-oxoquinazolin-3(4H)-yl)piperidine-2,6-dione]
6.26					Cc1nc2cccc(NCCCCNC34CC5CC(CC(C5)C3)C4)c2c(=O)n1C1CCC(=O)NC1=O (stereo not shown) [GT-01818, 3-(5-((4-(((3s,5s,7s)-adamantan-1-yl)amino)butyl)amino)-2-methyl-4-oxoquinazolin-3(4H)-yl)piperidine-2,6-dione]
	5.92			6.14	Cc1nc2cccc(SCCN3CCN(CCC45CC6CC(CC(C6)C4)C5)CC3)c2c(=O)n1C1CCC(=O)NC1=O (stereo not shown) [GT-03305, 3-(5-((2-(4-(2-((3r,5r,7r)-adamantan-1-yl)ethyl)piperazin-1-yl)ethyl)thio)-2-methyl-4-oxoquinazolin-3(4H)-yl)piperidine-2,6-dione]
